Data on twelve compounds can be found in patent US7368578B2, “Five-membered heterocyclic compounds” (Takeda Pharmaceutical Company Limited, priority 2002, dated 2008).

pIC50: −log10 of the molar value.

For data set [1], the target named is T1, human PPARγ1 (Homo sapiens, UniProt P37231).
T1 construct: made in house; host or cells: COS-1 cells transiently transfected with pMCMVneo-hPPARγ; crude supernatant of the lysate, not purified
T1 sequence (P37231 1-477 isoform P37231-2): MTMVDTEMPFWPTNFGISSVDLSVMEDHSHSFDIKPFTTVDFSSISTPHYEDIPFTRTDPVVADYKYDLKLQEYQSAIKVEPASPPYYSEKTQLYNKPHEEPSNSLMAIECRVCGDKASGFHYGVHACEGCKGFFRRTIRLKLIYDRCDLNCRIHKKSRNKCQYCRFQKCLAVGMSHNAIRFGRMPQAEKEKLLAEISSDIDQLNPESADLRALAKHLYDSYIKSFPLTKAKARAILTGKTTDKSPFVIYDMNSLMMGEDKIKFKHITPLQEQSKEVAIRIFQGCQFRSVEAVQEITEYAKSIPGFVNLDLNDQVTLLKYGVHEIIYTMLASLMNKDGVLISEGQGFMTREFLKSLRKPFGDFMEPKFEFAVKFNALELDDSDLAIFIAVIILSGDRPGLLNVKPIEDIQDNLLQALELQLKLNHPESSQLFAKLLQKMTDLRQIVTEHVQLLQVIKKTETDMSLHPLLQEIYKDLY
The data set can be described thus: Measurement of human PPARγ1 binding activity ([3H]-compound A displacement). Particulars: cell extract with 1.5 μg/ml full length hPPARγ1, 20 nM [3H]-compound A, 4° C., 16 hrs. The method, then:
A cell extract containing 1.5 μg/ml of full length hPPARγ1 prepared in Reference Example 7a, 20 nM [^3H]-compound A (16 Ci/mmol)(Amersham Pharmacia Biotech) and a test compound were reacted in TEGM buffer at 4° C. for 16 hrs. To the reaction mixture was added activated carbon (Sigma) coated with 140 μl of dextran (Amersham Pharmacia Biotech) and gelatin (Sigma), and the mixture was left standing at 4° C. for 10 min and centrifuged at 910×g for 10 min. After centrifugation, the radioactivity of 30 μl of supernatant was measured with Topcount (Packard). In addition, a test similar to the above was conducted for the non-use of the aforementioned test compound and for the use of 100 μM of compound A instead of the aforementioned test compound, and the radioactivity was determined.
The human PPARγ1 binding activity of the test compound was evaluated using percentages wherein the measured value of the radioactivity when 20 nM [^3H]-compound A alone was added was 100%, and the measured value of the radioactivity when 20 nM [^3H]-compound A and 100 μM of compound A were simultaneously added was 0%. Moreover, the IC50 value of the test compound was calculated based on the analysis of the compound concentration and the percentage using PRISM3.0 (Graph Pad, Inc.).
COS-1 cells were seeded in a 150 cm^2 tissue culture flask (Corning Inc.) at 5×10^6 cells, and cultured under 37° C. 5% CO2 conditions for 24 hrs. Transfection was performed using lipofectamine (GIBCO BRL). To be specific, 125 μl of lipofectamine, 100 μl of PLUS Reagent and 15 μg of hPPARγ expression plasmid (plasmid pMCMVneo-hPPARγ obtained in Reference Example 6a) were mixed with opti-MEM (GIBCO BRL) to give a transfection mixture. The transfection mixture (25 ml) was added to COS-1 cells and the cells were cultured under 37° C. 5% CO2 conditions for 3 hrs. Then 25 ml of DMEM medium (Nikken Biomedical Laboratory) containing 10% FCS treated with activated carbon (Sigma) was added to the cells and the cells were cultured under 37° C. 5% CO2 conditions. After 24 hrs., the medium was substituted with 50 ml of DMEM medium (Nikken Biomedical Laboratory) containing 5% FCS treated with activated carbon, and the cells were cultured under 37° C., 5% CO2 conditions. After 48 hrs, the transfected cells were recovered and washed with TEG buffer (10 mM Tris-HCl (pH 7.2), 50 mM EDTA, 10% glycerol). The cells were suspended in 1 ml TEGM buffer (10 mM Tris-HCl (pH 7.2), 1 mM EDTA, 10% glycerol, 7 μl/100 ml β-mercaptoethanol, 10 mM Na molybdate, 1 mM dithiothreitol, 2 tablets/100 ml Protease inhibitor Cocktail tablets (Boehringer Mannheim)) and, for cell lysis, frozen with liquid nitrogen and thawed on ice. To remove the debris of the cells, the extract was centrifuged at 228,000×g, 4° C. for 20 min. and the supernatant was preserved at −80° C. until use.

`CCC(=O)/C=C/c1cn(-c2ccccc2)nc1OCc1ccc(OCc2nc(-c3ccco3)oc2C)c(OC)c1` [Example 156, (1E)-1-{3-[(4-{[2-(2-furyl)-5-methyl-1,3-oxazol-4-yl]methoxy}-3-methoxybenzyl)oxy]-1-phenyl-1H-pyrazol-4-yl}-1-penten-3-one] had a melting point of 167 to 168 °C. In addition, the pIC50 in data set [1] is 5.14.

For `CCOP(=O)(/C=C/c1cn(-c2ccccc2)nc1OCc1ccc(OCc2csc(N3CCOCC3)n2)c(OC)c1)OCC` [Example 191, diethyl (E)-2-{3-[(3-methoxy-4-{[2-(morpholin-4-yl)-1,3-thiazol-4-yl]methoxy}benzyl)oxy]-1-phenyl-1H-pyrazol-4-yl}ethenylphosphonate], the melting point was in the range of 93 to 94 °C. The compound further showed a pIC50 in data set [1] of 6.09.

`CCOP(=O)(/C=C/c1cn(-c2ccccc2)nc1OCc1ccc(OCc2nc(-c3cccc(C(=O)O)c3)oc2C)c(OC)c1)OCC` [Example 203, 3-[4-({4-[({4-[(E)-2-(diethoxyphosphoryl)ethenyl]-1-phenyl-1H-pyrazol-3-yl}oxy)methyl]-2-methoxyphenoxy}methyl)-5-methyl-1,3-oxazol-2-yl]benzoic acid] gave a melting point of 148 to 149 °C. The pIC50 in data set [1] is 8.32.

The compound `CCOP(=O)(/C=C/c1cn(-c2ccccc2)nc1OCc1ccc(OCc2nc(-c3cccc(C(=O)OC)c3)oc2C)c(OC)c1)OCC` [Example 211, methyl 3-[4-({4-[({4-[(E)-2-(diethoxyphosphoryl)ethenyl]-1-phenyl-1H-pyrazol-3-yl}oxy)methyl]-2-methoxyphenoxy}methyl)-5-methyl-1,3-oxazol-2-yl]benzoate] returned a melting point of 141 to 142 °C. The compound further showed a pIC50 in data set [1] of 7.57.

In the case of `CCc1nc(/C=C/c2cn(-c3ccccc3)nc2OCc2ccc(OCc3nc(-c4cccc(C(=O)O)c4)oc3C)c(OC)c2)cs1` [Example 224, 3-[4-({4-[({4-[(E)-2-(2-ethyl-1,3-thiazol-4-yl)ethenyl]-1-phenyl-1H-pyrazol-3-yl}oxy)methyl]-2-methoxyphenoxy}methyl)-5-methyl-1,3-oxazol-2-yl]benzoic acid], the melting point lay in the range of 190 to 191 °C. Moreover, the pIC50 in data set [1] is 8.44.

The compound `CCOP(=O)(/C=C/c1cn(-c2ccccc2)nc1OCc1ccc(OCc2nc(-c3cccc(C(N)=O)c3)oc2C)c(OC)c1)OCC` [Example 239, diethyl (E)-2-(3-{[4-({2-[3-(carbamoyl)phenyl]-5-methyl-1,3-oxazol-4-yl}methoxy)-3-methoxybenzyl]oxy}-1-phenyl-1H-pyrazol-4-yl)ethenylphosphonate] returned a melting point of 127 to 128 °C. Also, the pIC50 in data set [1] is 7.21.

`CCOP(=O)(/C=C/c1cn(-c2ccccc2)nc1OCc1ccc(OCc2nc(-c3ccc(OC)c(C(=O)O)c3)oc2C)c(OC)c1)OCC` [Example 252, 5-{4-({4-[({4-[(E)-2-(diethoxyphosphoryl)ethenyl]-1-phenyl-1H-pyrazol-3-yl}oxy)methyl]-2-methoxyphenoxy}methyl)-5-methyl-1,3-oxazol-2-yl}-2-methoxybenzoic acid] displayed a melting point of 171 to 172 °C. The compound further showed a pIC50 in data set [1] of 7.64.

As to `COc1cc(COc2nn(-c3ccccc3)cc2/C=C/C#N)ccc1OCc1nc(-c2ccccc2)oc1C` [Example 282, (E)-3-(3-{[3-methoxy-4-(5-methyl-2-phenyl-1,3-oxazol-4-ylmethoxy)benzyl]oxy}-1-phenyl-1H-pyrazol-4-yl)-2-propenonitrile], the melting point lay in the range of 184 to 185 °C. This compound had a pIC50 in data set [1] of 6.92.

Consider `CCOC(=O)/C=C/c1cn(-c2ccccc2)nc1OCc1ccc(OCc2nc(-c3ccccc3)oc2C)c(OC)c1` [Example 284, ethyl (E)-3-(3-{[3-methoxy-4-(5-methyl-2-phenyl-1,3-oxazol-4-ylmethoxy)benzyl]oxy}-1-phenyl-1H-pyrazol-4-yl)-2-propenoate], for which the melting point lay in the range of 194 to 195 °C. In data set [1], this compound had a pIC50 of 7.12.

`CCc1nc(/C=C/c2cn(-c3ccccc3)nc2OCc2ccc(OCc3nc(-c4cccc(C(=O)O)c4)oc3C)c(OC)c2)co1` [Example 307] showed a melting point of 169 to 171 °C. Besides, the pIC50 in data set [1] was 8.13.

`CCOP(=O)(/C=C/c1cn(-c2ccccc2)nc1OCc1ccc(OCc2nc(/C=C/C(=O)O)oc2C)c(OC)c1)OCC` [Example 315, (2E)-3-[4-({4-[({4-[(E)-2-(diethoxyphosphoryl)ethenyl]-1-phenyl-1H-pyrazol-3-yl}oxy)methyl]-2-methoxyphenoxy}methyl)-5-methyl-1,3-oxazol-2-yl]-2-propenoic acid] showed a melting point of 89 to 90 °C. This compound gave a pIC50 in data set [1] of 6.30.

Regarding `CCn1cnc(/C=C/c2cn(-c3ccccc3)nc2OCc2ccc(OCc3nc(-c4ccc(CC(=O)O)cc4)oc3C)c(OC)c2)c1` [Example 344, (4-{4-[(4-[({4-[(E)-2-(1-ethyl-1H-imidazol-4-yl)ethenyl]-1-phenyl-1H-pyrazol-3-yl}oxy)methyl]-2-methoxyphenoxy)methyl]-5-methyl-1,3-oxazol-2-yl}phenyl)acetic acid], the melting point lay within 194 to 196 °C. This compound also showed a pIC50 in data set [1] of 7.34.
